Assay results: patent US11879012B2, “Method of modulating cell proliferation” (METRO NORTH HOSPITAL AND HEALTH SERVICE, priority 2018, dated 2024)

Columns and labels:
[1] = tested on: microvascular endothelial cells (MEC); test: MTT assay, metabolic response of microvascular endothelial cells; assay type: cell-based
Method: (§1) Measurement of mitochondrial enzyme activity by MTT conversion was utilised as an indirect assessment of metabolic and proliferative activity. MTT reagent was prepared by diluting the MTT stock solution (5 mg/mL) 1:10 in PBS (i.e., to a final concentration of 0.5 mg/mL MTT). Prior optimization of growth conditions (seeding density and duration in culture) was conducted to ensure sub-confluency at the time of measurement. For example, a seeding density of 10,000 cells per cm^2 and a culture period of 48-hours were routinely used. On the day of analysis, the culture medium was removed from each well and replaced with a fixed volume (0.5 mL per well of a 24 well plate) of MTT solution and incubated at 37° C. for 40 minutes. The MTT reagent was subsequently removed and the formazan product eluted by adding a fixed volume (300 μL per well of a 24 well plate) of acidified isopropanol (24.6 μL of concentrated HCL in 20 mL of isopropanol) to each well for approximately 5 minutes, 150 μL of the eluted stain from each well was then transferred into corresponding wells of a 96 well plate. The optical density was measured using a plate reader at 550 nm (background 620 nm). Microvascular endothelial cells (MEC) were cultured in MEC Culture Medium comprising 500 mL of MCDB-131 media containing 5 mL of 1M L-Glutamine, 5 Penicillin (10,000 IU/mL)/Streptomycin (10,000 ug/mL), 10% v/v foetal calf serum (FCS), 0.5 mL of 1 mg/mL hydrocortisone (Hc) and 0.5 mL of 10 ug/mL epidermal growth factor (EGF). Spent culture media was removed and the flask rinsed with 5 mL of phosphate buffered saline (without magnesium or calcium; PBSA). After 30 seconds, the PBSA was removed and 5 mL of 0.02% EDTA/0.05% trypsin reagent was added to the cells. The flask was then incubated at 37° C. for 5-8 minutes. The cells were then dislodged from the flask, removed and added to a 50 mL centrifuge tube containing an equal volume of culture media to neutralize the 0.02% EDTA/0.05% trypsin reagent. This tube was then centrifuged at 100 g for 5 minutes to form a pellet of cells. The supernatant was removed and the pellet of cells resuspended. The diluted cells were split 1:3 into new flasks containing culture media. The flasks were then placed in a humidified CO2 (5%) incubator at 37° C. until the cells were approximately 80% confluent. The process was repeated weekly. For the purpose of serum-free culturing, the MEC and LEC cells were serum starved by incubating them in serum-free MCDB-131 medium (Gibco/Life Technologies) for 12 hours. Limbal epithelial cells (LEC) were cultured in a similar manner to MEC in LEC Culture Medium comprising 500 mL of DMEM/F12 media containing 5 mL of 1M L-Glutamine, 5 mL of Pen (10,000 IU/mL)/Strep (10,000 ug/mL) and 10% FCS (v/v). Additional reagents used in these experiments are described below: • 0.02% EDTA/0.05% trypsin reagent: 5 mL of 2% EDTA solution and 10 mL of thawed 2.5% trypsin solution were added to 485 mL of PBSA, 50 mL aliquots were dispensed into 50 mL centrifuge tubes and stored below −20° C. • Pre-bound Collagen IV: 250 μL of Collagen IV stock solution was added to the wells of a 24 well tissue culture plate and allowed to dry completely over night in a biohazard cabinet. • Pre-bound Vitronectin: a vitronectin stock solution (2 mg/mL) was diluted in water to a final concentration of 5 μg/mL. […]

[2] = tested on: limbal epithelial cells (LEC); test: MTT assay, metabolic response of limbal epithelial cells; assay type: cell-based; settings: FIG. 8
Method: as §1, with “nm).” for “nm). Microvascular endothelial cells (MEC) were cultured in MEC Culture Medium comprising 500 mL of MCDB-131 media containing 5 mL of 1M L-Glutamine, 5 Penicillin (10,000 IU/mL)/Streptomycin (10,000 ug/mL), 10% v/v foetal calf serum (FCS), 0.5 mL of 1 mg/mL hydrocortisone (Hc) and 0.5 mL of 10 ug/mL epidermal growth factor (EGF).”, “(v/v).” for “(v/v). Additional reagents used in these experiments are described below: • 0.02% EDTA/0.05% trypsin reagent: 5 mL of 2% EDTA solution and 10 mL of thawed 2.5% trypsin solution were added to 485 mL of PBSA, 50 mL aliquots were dispensed into 50 mL centrifuge tubes and stored below −20° C. • Pre-bound Collagen IV: 250 μL of Collagen IV stock solution was added to the wells of a 24 well tissue culture plate and allowed to dry completely over night in a biohazard cabinet. • Pre-bound Vitronectin: a vitronectin stock solution (2 mg/mL) was diluted in water to a final concentration of 5 μg/mL.”

[3] = agent alone, serum-starved cells, 2 days, glucose 10 mg/mL, thrombin 100 IU/mL
[4] = agent alone, serum-starved cells, 2 days, glucose 10 mg/mL, thrombin 100 IU/mL, FIG. 7

anti-thrombin III
proliferation of MEC ([1]; ATIII 10 IU/mL in the presence of thrombin (+glucose) and pre-bound PSGL-1, FIG. 9): stimulated the proliferation of MEC

thrombin
proliferation of LEC [2, 3]: did not significantly stimulate proliferation
proliferation of LEC ([2]; glucose with thrombin): did not significantly stimulate proliferation
proliferation of MEC ([1]; 100 IU/mL thrombin with glucose, FIG. 7): stimulated proliferation of MEC in synergy with glucose, exceeding the positive control
proliferation of MEC [1, 4]: did not significantly stimulate proliferation of endothelium

B1: P-selectin: pre-bound recombinant human P-selectin (protein, UniProt P16109 42-830, looked up)
P-selectin: WTYHYSTKAYSWNISRKYCQNRYTDLVAIQNKNEIDYLNKVLPYYSSYYWIGIRKNNKTWTWVGTKKALTNEAENWADNEPNNKRNNEDCVEIYIKSPSAPGKWNDEHCLKKKHALCYTASCQDMSCSKQGECLETIGNYTCSCYPGFYGPECEYVRECGELELPQHVLMNCSHPLGNFSFNSQCSFHCTDGYQVNGPSKLECLASGIWTNKPPQCLAAQCPPLKIPERGNMTCLHSAKAFQHQSSCSFSCEEGFALVGPEVVQCTASGVWTAPAPVCKAVQCQHLEAPSEGTMDCVHPLTAFAYGSSCKFECQPGYRVRGLDMLRCIDSGHWSAPLPTCEAISCEPLESPVHGSMDCSPSLRAFQYDTNCSFRCAEGFMLRGADIVRCDNLGQWTAPAPVCQALQCQDLPVPNEARVNCSHPFGAFRYQSVCSFTCNEGLLLVGASVLQCLATGNWNSVPPECQAIPCTPLLSPQNGTMTCVQPLGSSSYKSTCQFICDEGYSLSGPERLDCTRSGRWTDSPPMCEAIKCPELFAPEQGSLDCSDTRGEFNVGSTCHFSCDNGFKLEGPNNVECTTSGRWSATPPTCKGIASLPTPGVQCPALTTPGQGTMYCRHHPGTFGFNTTCYFGCNAGFTLIGDSTLSCRPSGQWTAVTPACRAVKCSELHVNKPIAMNCSNLWGNFSYGSICSFHCLEGQLLNGSAQTACQENGHWSTTVPTCQAGPLTIQEALTYFGGAVASTIGLIMGGTLLALLRKRFRQKDDGKCPLNPHSHLGTYGVFTNAAFDPSP
thrombin-induced proliferation of MEC ([1]; pre-bound, in the presence of glucose, absence of collagen IV and vitronectin, FIG. 7): reduced the thrombin-induced proliferation of MEC

B2: vitronectin: pre-bound basement membrane protein (protein, UniProt P04004 20-478, looked up)
Vitronectin: DQESCKGRCTEGFNVDKKCQCDELCSYYQSCCTDYTAECKPQVTRGDVFTMPEDEYTVYDDGEEKNNATVHEQVGGPSLTSDLQAQSKGNPEQTPVLKPEEEAPAPEVGASKPEGIDSRPETLHPGRPQPPAEEELCSGKPFDAFTDLKNGSLFAFRGQYCYELDEKAVRPGYPKLIRDVWGIEGPIDAAFTRINCQGKTYLFKGSQYWRFEDGVLDPDYPRNISDGFDGIPDNVDAALALPAHSYSGRERVYFFKGKQYWEYQFQHQPSQEECEGSSLSAVFEHFAMMQRDSWEDIFELLFWGRTSAGTRQPQFISRDWHGVPGQVDAAMAGRIYISGMAPRPSLAKKQRFRHRNRKGYRSQRGHSRGRNQNSRRPSRATWLSLFSSEESNLGANNYDDYRMDWLVPATCEPIQSVFFFSGDKYYRVNLRTRRVDTVDPPYPRSIAQYWLGCPAPGHL
proliferation of LEC [2, 3]: did not significantly stimulate proliferation
proliferation of MEC [1, 4]: did not significantly stimulate proliferation of endothelium

B3: PSGL-1: pre-bound selectin receptor, P-selectin glycoprotein ligand-1 (protein, UniProt Q14242 42-412, looked up)
P-selectin glycoprotein …: QATEYEYLDYDFLPETEPPEMLRNSTDTTPLTGPGTPESTTVEPAARRSTGLDAGGAVTELTTELANMGNLSTDSAAMEIQTTQPAATEAQTTQPVPTEAQTTPLAATEAQTTRLTATEAQTTPLAATEAQTTPPAATEAQTTQPTGLEAQTTAPAAMEAQTTAPAAMEAQTTPPAAMEAQTTQTTAMEAQTTAPEATEAQTTQPTATEAQTTPLAAMEALSTEPSATEALSMEPTTKRGLFIPFSVSSVTHKGIPMAASNLSVNYPVGAPDHISVKQCLLAILILALVATIFFVCTVVLAVRLSRKGHMYPVRNYSPTEMVCISSLLPDGGEGPSATANGGLSKAKSPGLTPEPREDREGDDLTLHSFLP
thrombin induced proliferation of LEC ([2]; pre-bound, in the presence of glucose): stimulated thrombin induced proliferation of LEC
